Results taken from ChEMBL document CHEMBL3885881, “DrugMatrix”.

Species: Rattus norvegicus
Test: DrugMatrix - Regimen: Daily Repeat
Assay type: toxicity, organism-based, Sprague-Dawley
Design: regimen Daily Repeat, gender Male, age 6-8 weeks
Details: in vivo, po, route oral GAVAGE, vehicle .5 % CMC; for ABSOLUTE BASOPHIL / ABSOLUTE EOSINOPHIL / ABSOLUTE LYMPHOCYTE / ABSOLUTE MONOCYTE / ABSOLUTE SEGMENTED NEUTROPHIL / BASOPHIL / EOSINOPHIL / ERYTHROCYTE COUNT / HEMATOCRIT / HEMOGLOBIN / LEUKOCYTE COUNT / LYMPHOCYTE / MEAN CORPUSCULAR HEMOGLOBIN / MEAN CORPUSCULAR HEMOGLOBIN CONCENTRATION / MEAN CORPUSCULAR VOLUME / MONOCYTE / NEUTROPHIL / NUCLEATED RED BLOOD CELLS / PLATELET COUNT: tissue Blood; for ALANINE AMINOTRANSFERASE / ALBUMIN / ALKALINE PHOSPHATASE / ASPARTATE AMINOTRANSFERASE / BLOOD UREA NITROGEN / CARBON DIOXIDE / CHLORIDE / CHOLESTEROL / CREATINE PHOSPHOKINASE / CREATININE / GLUCOSE / LACTATE DEHYDROGENASE / LIPASE / PHOSPHORUS / POTASSIUM / SODIUM / TOTAL BILIRUBIN / TOTAL PROTEIN / URIC ACID: tissue Plasma
[1] = 75 mg/kg, 72 h, dose level Low, time 3 day
[2] = 75 mg/kg, 120 h, dose level Low, time 5 day
[3] = 750 mg/kg, 72 h, dose level High, time 3 day
[4] = 750 mg/kg, 120 h, dose level High, time 5 day

CC(=O)OC[C@H]1O[C@@H](n2ncc(=O)[nH]c2=O)[C@H](OC(C)=O)[C@@H]1OC(C)=O [AZARIBINE]
ABSOLUTE BASOPHIL [1]: 0 CELLS/uL | ABSOLUTE EOSINOPHIL [1]: 0 CELLS/uL | ABSOLUTE LYMPHOCYTE [1]: 12537.67 CELLS/uL | ABSOLUTE MONOCYTE [1]: 196 CELLS/uL | ABSOLUTE SEGMENTED NEUTROPHIL [1]: 1699.67 CELLS/uL | BASOPHIL [1]: 0% | EOSINOPHIL [1]: 0% | ERYTHROCYTE COUNT [1]: 5.31 x10E6/uL | HEMATOCRIT [1]: 32.6% | HEMOGLOBIN [1]: 12.37 G/DL | LEUKOCYTE COUNT [1]: 14.43 x10E3/uL | LYMPHOCYTE [1]: 87% | MEAN CORPUSCULAR HEMOGLOBIN [1]: 23.3 pg | MEAN CORPUSCULAR HEMOGLOBIN CONCENTRATION [1]: 37.93 G/DL | MEAN CORPUSCULAR VOLUME [1]: 61.4 fL | MONOCYTE [1]: 1.33% | NEUTROPHIL [1]: 11.67% | NUCLEATED RED BLOOD CELLS [1]: 0 /100WBC | PLATELET COUNT [1]: 1235.33 x10E3/uL | ALANINE AMINOTRANSFERASE [1]: 37 u/L | ALBUMIN [1]: 4.13 G/DL | ALKALINE PHOSPHATASE [1]: 384.67 u/L | ASPARTATE AMINOTRANSFERASE [1]: 74.67 u/L | BLOOD UREA NITROGEN [1]: 16.33 mg/dL | CARBON DIOXIDE [1]: 24.33 mmol/L | CHLORIDE [1]: 100.67 MEQ/L | CHOLESTEROL [1]: 73 mg/dL | CREATINE PHOSPHOKINASE [1]: 254.33 u/L | CREATININE [1]: 0.25 mg/dL | GLUCOSE [1]: 157.67 mg/dL | LACTATE DEHYDROGENASE [1]: 151 u/L | LIPASE [1]: 10.33 u/L | PHOSPHORUS [1]: 12.53 mg/dL | POTASSIUM [1]: 5.81 MEQ/L | SODIUM [1]: 141.13 MEQ/L | TOTAL BILIRUBIN [1]: 0.17 mg/dL | TOTAL PROTEIN [1]: 6.2 G/DL | URIC ACID [1]: 1.1 mg/dL | ABSOLUTE BASOPHIL [2]: 0 CELLS/uL | ABSOLUTE EOSINOPHIL [2]: 42.67 CELLS/uL | ABSOLUTE LYMPHOCYTE [2]: 10939.33 CELLS/uL | ABSOLUTE MONOCYTE [2]: 627 CELLS/uL | ABSOLUTE SEGMENTED NEUTROPHIL [2]: 1691 CELLS/uL | BASOPHIL [2]: 0% | EOSINOPHIL [2]: 0.33% | ERYTHROCYTE COUNT [2]: 5.34 x10E6/uL | HEMATOCRIT [2]: 32.93% | HEMOGLOBIN [2]: 12.57 G/DL | LEUKOCYTE COUNT [2]: 13.3 x10E3/uL | LYMPHOCYTE [2]: 82.33% | MEAN CORPUSCULAR HEMOGLOBIN [2]: 23.53 pg | MEAN CORPUSCULAR HEMOGLOBIN CONCENTRATION [2]: 38.17 G/DL | MEAN CORPUSCULAR VOLUME [2]: 61.67 fL | MONOCYTE [2]: 4.67% | NEUTROPHIL [2]: 12.67% | NUCLEATED RED BLOOD CELLS [2]: 0 /100WBC | PLATELET COUNT [2]: 932 x10E3/uL | ALANINE AMINOTRANSFERASE [2]: 43.33 u/L | ALBUMIN [2]: 3.93 G/DL | ALKALINE PHOSPHATASE [2]: 273 u/L | ASPARTATE AMINOTRANSFERASE [2]: 76 u/L | BLOOD UREA NITROGEN [2]: 16.67 mg/dL | CARBON DIOXIDE [2]: 33 mmol/L | CHLORIDE [2]: 95.33 MEQ/L | CHOLESTEROL [2]: 74 mg/dL | CREATINE PHOSPHOKINASE [2]: 309 u/L | CREATININE [2]: 0.2 mg/dL | GLUCOSE [2]: 150 mg/dL | LACTATE DEHYDROGENASE [2]: 226 u/L | LIPASE [2]: 10.33 u/L | PHOSPHORUS [2]: 12.03 mg/dL | POTASSIUM [2]: 6.04 MEQ/L | SODIUM [2]: 140.6 MEQ/L | TOTAL BILIRUBIN [2]: 0.1 mg/dL | TOTAL PROTEIN [2]: 5.93 G/DL | URIC ACID [2]: 1.33 mg/dL | ABSOLUTE BASOPHIL [3]: 0 CELLS/uL | ABSOLUTE EOSINOPHIL [3]: 37.33 CELLS/uL | ABSOLUTE LYMPHOCYTE [3]: 11597.33 CELLS/uL | ABSOLUTE MONOCYTE [3]: 87.33 CELLS/uL | ABSOLUTE SEGMENTED NEUTROPHIL [3]: 844.67 CELLS/uL | BASOPHIL [3]: 0% | EOSINOPHIL [3]: 0.33% | ERYTHROCYTE COUNT [3]: 4.98 x10E6/uL | HEMATOCRIT [3]: 31.27% | HEMOGLOBIN [3]: 11.73 G/DL | LEUKOCYTE COUNT [3]: 12.57 x10E3/uL | LYMPHOCYTE [3]: 92% | MEAN CORPUSCULAR HEMOGLOBIN [3]: 23.63 pg | MEAN CORPUSCULAR HEMOGLOBIN CONCENTRATION [3]: 37.53 G/DL | MEAN CORPUSCULAR VOLUME [3]: 62.9 fL | MONOCYTE [3]: 0.67% | NEUTROPHIL [3]: 7% | NUCLEATED RED BLOOD CELLS [3]: 0 /100WBC | PLATELET COUNT [3]: 1125.67 x10E3/uL | ALANINE AMINOTRANSFERASE [3]: 29 u/L | ALBUMIN [3]: 4.23 G/DL | ALKALINE PHOSPHATASE [3]: 344 u/L | ASPARTATE AMINOTRANSFERASE [3]: 95.33 u/L | BLOOD UREA NITROGEN [3]: 18 mg/dL | CARBON DIOXIDE [3]: 25.67 mmol/L | CHLORIDE [3]: 101 MEQ/L | CHOLESTEROL [3]: 66 mg/dL | CREATINE PHOSPHOKINASE [3]: 781.33 u/L | CREATININE [3]: 0.22 mg/dL | GLUCOSE [3]: 147.33 mg/dL | LACTATE DEHYDROGENASE [3]: 248.33 u/L | LIPASE [3]: 10.33 u/L | PHOSPHORUS [3]: 12.2 mg/dL | POTASSIUM [3]: 5.97 MEQ/L | SODIUM [3]: 141.5 MEQ/L | TOTAL BILIRUBIN [3]: 0.2 mg/dL | TOTAL PROTEIN [3]: 6.1 G/DL | URIC ACID [3]: 1.43 mg/dL | ABSOLUTE BASOPHIL [4]: 0 CELLS/uL | ABSOLUTE EOSINOPHIL [4]: 49.33 CELLS/uL | ABSOLUTE LYMPHOCYTE [4]: 12972.67 CELLS/uL | ABSOLUTE MONOCYTE [4]: 95.67 CELLS/uL | ABSOLUTE SEGMENTED NEUTROPHIL [4]: 649 CELLS/uL | BASOPHIL [4]: 0% | EOSINOPHIL [4]: 0.33% | ERYTHROCYTE COUNT [4]: 5 x10E6/uL | HEMATOCRIT [4]: 29.63% | HEMOGLOBIN [4]: 11.47 G/DL | LEUKOCYTE COUNT [4]: 13.77 x10E3/uL | LYMPHOCYTE [4]: 94.33% | MEAN CORPUSCULAR HEMOGLOBIN [4]: 22.93 pg | MEAN CORPUSCULAR HEMOGLOBIN CONCENTRATION [4]: 38.7 G/DL | MEAN CORPUSCULAR VOLUME [4]: 59.27 fL | MONOCYTE [4]: 0.67% | NEUTROPHIL [4]: 4.67% | NUCLEATED RED BLOOD CELLS [4]: 0 /100WBC | PLATELET COUNT [4]: 1279 x10E3/uL | ALANINE AMINOTRANSFERASE [4]: 26.67 u/L | ALBUMIN [4]: 4.07 G/DL | ALKALINE PHOSPHATASE [4]: 306.67 u/L | ASPARTATE AMINOTRANSFERASE [4]: 81.33 u/L | BLOOD UREA NITROGEN [4]: 15.33 mg/dL | CARBON DIOXIDE [4]: 30.33 mmol/L | CHLORIDE [4]: 98.67 MEQ/L | CHOLESTEROL [4]: 73.67 mg/dL | CREATINE PHOSPHOKINASE [4]: 266 u/L | CREATININE [4]: 0.22 mg/dL | GLUCOSE [4]: 135.67 mg/dL | LACTATE DEHYDROGENASE [4]: 347 u/L | LIPASE [4]: 10 u/L | PHOSPHORUS [4]: 11.07 mg/dL | POTASSIUM [4]: 6.41 MEQ/L | SODIUM [4]: 142.17 MEQ/L | TOTAL BILIRUBIN [4]: 0.1 mg/dL | TOTAL PROTEIN [4]: 6 G/DL | URIC ACID [4]: 1.37 mg/dL
